# Like-named read-outs stand apart in the source and are kept apart here.
# Experiments:
# hGIPR = biological target: T1, hGIPR (Homo sapiens, UniProt P48546); test: Functional cAMP formation (HTRF) in HEK-293 clonal cells expressing hGIPR, 0.1% bovine casein, without or with 1.0% human serum albumin; format: cell-based; conditions: for EC50: cAMP, 0.1% bovine casein (no human serum albumin), geometric mean
# T1 construct: expressed in transfected cells
# T1 sequence (P48546 22-466): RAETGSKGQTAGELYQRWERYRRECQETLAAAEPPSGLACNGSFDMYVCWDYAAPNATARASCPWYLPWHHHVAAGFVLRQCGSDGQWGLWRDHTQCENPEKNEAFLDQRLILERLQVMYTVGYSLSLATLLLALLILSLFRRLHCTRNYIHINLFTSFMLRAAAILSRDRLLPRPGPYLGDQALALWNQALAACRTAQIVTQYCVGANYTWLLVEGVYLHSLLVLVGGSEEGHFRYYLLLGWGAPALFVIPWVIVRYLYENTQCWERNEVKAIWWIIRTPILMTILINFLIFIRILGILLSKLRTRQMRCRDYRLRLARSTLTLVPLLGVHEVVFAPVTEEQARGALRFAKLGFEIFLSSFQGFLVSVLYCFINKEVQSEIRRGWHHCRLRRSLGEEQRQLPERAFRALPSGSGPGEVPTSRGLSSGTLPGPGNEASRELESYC
# Experimental: (§1) After a 30-min incubation at 37° C., the resulting increase in intracellular cAMP is quantitatively determined using a CisBio cAMP Dynamic 2 HTRF Assay Kit (62AM4PEJ). Briefly, cAMP levels within the cell are detected by adding the cAMP-d2 conjugate in cell lysis buffer (10 µL) followed by the antibody anti-cAMP-Eu^3+-Cryptate, also in cell lysis buffer (10 µL). The resulting competitive assay is incubated for at least 60 min at room temperature, and then is detected using a PerkinElmer Envision® instrument with excitation at 320 nm and emission at 665 nm and 620 nm. Envision units (emission at 665 nm/620 nm* 10,000) are inversely proportional to the amount of cAMP present and are converted to nM cAMP per well us-ing a cAMP standard curve. […] A relative EC50 value and percent top (Emax) are derived by non-linear regression analysis using the percent maximal response vs. the concentration of peptide added, fitted to a four-parameter logistic equation.
# hGCGR = biological target: T2, hGCGR (Homo sapiens, UniProt P47871); test: Functional cAMP formation (HTRF) in HEK-293 clonal cells expressing hGCGR, 0.1% bovine casein, without or with 1.0% human serum albumin; format: cell-based; conditions: geometric mean
# T2 construct: expressed in transfected cells
# Experimental: as §1
# [1] = HEK293, percent of maximal response to GIP(1-42)NH2, 37° C., 0.1% bovine casein, arithmetic mean, read-out: hGIPR Emax, % ± SEM
# [2] = incubated at 37° C., read-out: hGIPR EC50, nM (SEM, n)
# [3] = cAMP, incubated at 37° C., 0.1% bovine casein (no human serum albumin), read-out: hGCGR EC50, nM (SEM, n)
# T2 sequence (P47871 26-477): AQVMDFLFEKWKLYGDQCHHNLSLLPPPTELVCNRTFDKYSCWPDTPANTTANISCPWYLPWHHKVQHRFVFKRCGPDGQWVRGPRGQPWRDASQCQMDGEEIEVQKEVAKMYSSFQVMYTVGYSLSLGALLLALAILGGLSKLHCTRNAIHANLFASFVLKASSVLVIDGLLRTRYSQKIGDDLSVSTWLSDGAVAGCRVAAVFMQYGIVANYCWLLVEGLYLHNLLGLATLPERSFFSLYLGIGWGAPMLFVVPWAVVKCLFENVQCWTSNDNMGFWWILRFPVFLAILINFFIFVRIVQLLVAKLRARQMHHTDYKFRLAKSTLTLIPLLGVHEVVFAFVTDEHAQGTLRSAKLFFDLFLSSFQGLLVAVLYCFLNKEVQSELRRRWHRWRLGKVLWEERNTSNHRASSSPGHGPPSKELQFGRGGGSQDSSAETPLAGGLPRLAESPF
Structure (SMILES),Emax (hGIPR; [1]),EC50 (hGIPR; [2]),EC50 (hGCGR; [3]),"Emax (hGIPR; HEK293, read-out: hGIPR Emax, % ± SEM, 0.1% bovine casein and 1.0% human serum albumin, 37° C., percent of maximal response to GIP(1-42)NH2)","EC50 (hGIPR; hGIPR EC50, nM (SEM, n), 37° C.)","EC50 (hGCGR; hGCGR EC50, nM (SEM, n), 0.1% bovine casein and 1.0% human serum albumin, 37° C.)","EC50 (hGCGR; hGCGR EC50, nM (SEM, n), cAMP, 37° C., 0.1% bovine casein (no human serum albumin))","EC50 (hGCGR; 0.1% bovine casein and 1.0% human serum albumin, 37° C., read-out: hGCGR EC50, nM (SEM, n))"
CC[C@H](C)[C@H](NC(=O)[C@H](CC(C)C)NC(=O)[C@](C)(Cc1ccc(O)cc1)NC(=O)[C@@H](CCC(=O)O)NC(=O)[C@@H](NC(=O)[C@H](Cc1ccccc1)NC(=O)[C@H](CCC(=O)O)NC(=O)C(C)(C)NC(=O)[C@H](CCC(N)=O)NC(=O)[C@H](C)NC(=O)[C@H](CCCCNC(=O)COCCOCCNC(=O)COCCOCCNC(=O)CC[C@H](NC(=O)CCCCCCCCCCCCC(=O)O)C(=O)O)NC(=O)[C@H](CCCN)NC(=O)[C@H](CC(=O)O)NC(=O)[C@H](CC(C)C)NC(=O)[C@](C)(CC(C)C)NC(=O)[C@@H](NC(=O)[C@H](CO)NC(=O)[C@H](Cc1ccsc1)NC(=O)[C@H](CC(=O)O)NC(=O)[C@H](CO)NC(=O)[C@@H](NC(=O)[C@](C)(Cc1ccccc1F)NC(=O)[C@@H](NC(=O)CNC(=O)[C@H](CCC(=O)O)NC(=O)C(C)(C)NC(=O)[C@@H](N)Cc1ccc(O)cc1)[C@@H](C)O)[C@@H](C)O)[C@@H](C)CC)[C@@H](C)CC)C(=O)N[C@@H](CCC(=O)O)C(=O)NCC(=O)NCC(=O)N[C@@H](CCCCNC(=O)COCCOCCNC(=O)COCCOCCNC(=O)CC[C@H](NC(=O)CCCCCCCCCCCCC(=O)O)C(=O)O)C(=O)N[C@@H](CO)C(=O)N[C@@H](CO)C(=O)NCC(=O)N[C@@H](C)C(=O)N1CCC[C@H]1C(=O)N1CCC[C@H]1C(=O)N1CCC[C@H]1C(=O)N[C@@H](CO)C(N)=O [Example 146],76.5%,0.0198 nM,> 9950 nM,–,–,–,–,–
CC[C@H](C)[C@H](NC(=O)[C@H](CCCN)NC(=O)[C@H](CC(=O)O)NC(=O)[C@H](CC(C)C)NC(=O)[C@](C)(CC(C)C)NC(=O)[C@@H](NC(=O)[C@H](CO)NC(=O)[C@H](CCCCNC(=O)COCCOCCNC(=O)COCCOCCNC(=O)CC[C@H](NC(=O)CCCCCCCCCCCCC(=O)O)C(=O)O)NC(=O)[C@H](CC(=O)O)NC(=O)[C@H](CO)NC(=O)[C@@H](NC(=O)[C@](C)(Cc1ccccc1F)NC(=O)[C@@H](NC(=O)CNC(=O)[C@H](CCC(=O)O)NC(=O)C(C)(C)NC(=O)[C@@H](N)Cc1ccc(O)cc1)[C@@H](C)O)[C@@H](C)O)[C@@H](C)CC)C(=O)N[C@@H](C)C(=O)N[C@@H](CCC(N)=O)C(=O)NC(C)(C)C(=O)N[C@@H](CCC(=O)O)C(=O)N[C@@](C)(Cc1ccccc1)C(=O)N[C@H](C(=O)N[C@H](CCC(=O)O)C(=O)N[C@@](C)(Cc1ccc(O)cc1)C(=O)N[C@@H](CC(C)C)C(=O)N[C@H](C(=O)N[C@@H](CCC(=O)O)C(=O)NCC(=O)NCC(=O)N[C@@H](CCCCNC(=O)COCCOCCNC(=O)COCCOCCNC(=O)CC[C@H](NC(=O)CCCCCCCCCCCCC(=O)O)C(=O)O)C(=O)N[C@@H](CO)C(=O)N[C@@H](CO)C(=O)NCC(=O)N[C@@H](C)C(=O)N1CCC[C@H]1C(=O)N1CCC[C@H]1C(=O)N1CCC[C@H]1C(=O)N[C@@H](CO)C(N)=O)[C@@H](C)CC)[C@@H](C)CC [Example 112],93.6%,0.0229 nM,> 9950 nM,–,–,–,–,–
CC[C@H](C)[C@H](NC(=O)[C@H](CCCN)NC(=O)[C@H](CC(=O)O)NC(=O)[C@H](CC(C)C)NC(=O)[C@](C)(CC(C)C)NC(=O)[C@@H](NC(=O)[C@H](CO)NC(=O)[C@H](Cc1ccncc1)NC(=O)[C@H](CC(=O)O)NC(=O)[C@H](CO)NC(=O)[C@@H](NC(=O)[C@](C)(Cc1ccccc1F)NC(=O)[C@@H](NC(=O)CNC(=O)[C@H](CCC(=O)O)NC(=O)C(C)(C)NC(=O)[C@@H](N)Cc1ccc(O)cc1)[C@@H](C)O)[C@@H](C)O)[C@@H](C)CC)C(=O)N[C@@H](C)C(=O)N[C@@H](CCC(N)=O)C(=O)NC(C)(C)C(=O)N[C@@H](CCCCNC(=O)COCCOCCNC(=O)COCCOCCNC(=O)CC[C@H](NC(=O)CCCCCCCCCOc1ccc(C(=O)O)cc1)C(=O)O)C(=O)N[C@@H](Cc1ccccc1)C(=O)N[C@H](C(=O)N[C@H](CCC(=O)O)C(=O)N[C@@](C)(Cc1ccc(O)cc1)C(=O)N[C@@H](CC(C)C)C(=O)N[C@H](C(=O)N[C@@H](CCC(=O)O)C(=O)NCC(=O)NCC(=O)N1CCC[C@H]1C(=O)N[C@@H](CO)C(=O)N[C@@H](CO)C(=O)NCC(=O)N[C@@H](C)C(=O)N1CCC[C@H]1C(=O)N1CCC[C@H]1C(=O)N1CCC[C@H]1C(=O)N[C@@H](CO)C(=O)N[C@@H](CCCCNC(=O)COCCOCCNC(=O)COCCOCCNC(=O)CC[C@H](NC(=O)CCCCCCCCCOc1ccc(C(=O)O)cc1)C(=O)O)C(N)=O)[C@@H](C)CC)[C@@H](C)CC [Example 276],–,–,–,91.4%,0.0134 nM,> 9950 nM,> 9950 nM,–
CC[C@H](C)[C@H](NC(=O)[C@H](CC(C)C)NC(=O)[C@](C)(Cc1ccc(O)cc1)NC(=O)[C@@H](CCC(=O)O)NC(=O)[C@@H](NC(=O)[C@H](Cc1ccccc1)NC(=O)[C@H](CCC(=O)O)NC(=O)C(C)(C)NC(=O)[C@H](CCC(N)=O)NC(=O)[C@H](C)NC(=O)[C@H](CCCCNC(=O)COCCOCCNC(=O)COCCOCCNC(=O)CC[C@H](NC(=O)CCCc1ccc(C(C)(C)C)cc1)C(=O)O)NC(=O)[C@H](CCCN)NC(=O)[C@H](CC(=O)O)NC(=O)[C@H](CC(C)C)NC(=O)[C@](C)(CC(C)C)NC(=O)[C@@H](NC(=O)C(C)(C)NC(=O)[C@@H](NC(=O)[C@H](CC(=O)O)NC(=O)[C@H](CO)NC(=O)[C@@H](NC(=O)[C@](C)(Cc1ccccc1)NC(=O)[C@@H](NC(=O)CNC(=O)[C@H](CCC(=O)O)NC(=O)C(C)(C)NC(=O)[C@@H](N)Cc1ccc(O)cc1)[C@@H](C)O)[C@@H](C)O)C(C)C)[C@@H](C)CC)[C@@H](C)CC)C(=O)N[C@@H](CCC(=O)O)C(=O)NCC(=O)NCC(=O)N[C@@H](CCCCNC(=O)COCCOCCNC(=O)COCCOCCNC(=O)CC[C@H](NC(=O)CCCc1ccc(C(C)(C)C)cc1)C(=O)O)C(=O)N[C@@H](CO)C(=O)N[C@@H](CO)C(=O)NCC(=O)N[C@@H](C)C(=O)N1CCC[C@H]1C(=O)N1CCC[C@H]1C(=O)N1CCC[C@H]1C(=O)N[C@@H](CO)C(N)=O [Example 178],105%,0.11 nM,> 9950 nM,–,–,–,–,–
CC[C@H](C)[C@H](NC(=O)[C@H](CC(C)C)NC(=O)[C@](C)(Cc1ccc(O)cc1)NC(=O)[C@@H](CCC(=O)O)NC(=O)[C@@H](NC(=O)[C@](C)(Cc1ccccc1)NC(=O)[C@H](CCC(=O)O)NC(=O)C(C)(C)NC(=O)[C@H](CCC(N)=O)NC(=O)[C@H](C)NC(=O)[C@H](CCCCNC(=O)COCCOCCNC(=O)COCCOCCNC(=O)CC[C@H](NC(=O)CCCCCCCCCCCCC(=O)O)C(=O)O)NC(=O)[C@H](CCCN)NC(=O)[C@H](CC(=O)O)NC(=O)[C@H](CC(C)C)NC(=O)[C@](C)(CC(C)C)NC(=O)[C@@H](NC(=O)[C@H](CO)NC(=O)[C@@H](NC(=O)[C@H](CC(=O)O)NC(=O)[C@H](CO)NC(=O)[C@@H](NC(=O)[C@](C)(Cc1ccccc1F)NC(=O)[C@@H](NC(=O)CNC(=O)[C@H](CCC(=O)O)NC(=O)C(C)(C)NC(=O)[C@@H](N)Cc1ccc(O)cc1)[C@@H](C)O)[C@@H](C)O)C(C)C)[C@@H](C)CC)[C@@H](C)CC)C(=O)N[C@@H](CCC(=O)O)C(=O)NCC(=O)NCC(=O)N[C@@H](CCCCNC(=O)COCCOCCNC(=O)COCCOCCNC(=O)CC[C@H](NC(=O)CCCCCCCCCCCCC(=O)O)C(=O)O)C(=O)N[C@@H](CO)C(=O)N[C@@H](CO)C(=O)NCC(=O)N[C@@H](C)C(=O)N1CCC[C@H]1C(=O)N1CCC[C@H]1C(=O)N1CCC[C@H]1C(=O)N[C@@H](CO)C(N)=O [Example 92],–,–,> 9950 nM,–,–,–,–,> 9950 nM
